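Test compounds were applied to cells in 96-well plates for 48 hours at 5 doses. Here, GI50 denotes the concentration required for 50% inhibition of growth. Definition used: TGI = concentration required for complete inhibition of growth.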
Assays:
Assay in all cases: NCI anticancer screen, dose series, 48 h
SW-620 colon = tested on: SW-620 colon
SNB-75 CNS = tested on: SNB-75 CNS
SK-MEL-2 melanoma = tested on: SK-MEL-2 melanoma
SR leukemia = tested on: SR leukemia
HOP-92 NSCLC = tested on: HOP-92 NSCLC
EKVX NSCLC = tested on: EKVX NSCLC
NCI-H23 lung = tested on: NCI-H23 lung
SK-MEL-28 melanoma = tested on: SK-MEL-28 melanoma
RPMI-8226 leukemia = tested on: RPMI-8226 leukemia
SF-539 CNS = tested on: SF-539 CNS

Compound	TGI (SW-620 colon) [µM]	TGI (SNB-75 CNS) [µM]	TGI (SK-MEL-2 melanoma) [µM]	TGI (SR leukemia) [µM]	TGI (HOP-92 NSCLC) [µM]	TGI (EKVX NSCLC) [µM]	TGI (NCI-H23 lung) [µM]	TGI (SK-MEL-28 melanoma) [µM]	TGI (RPMI-8226 leukemia) [µM]	TGI (SF-539 CNS) [µM]	GI50 (SNB-75 CNS) [µM]	GI50 (SK-MEL-2 melanoma) [µM]	GI50 (SR leukemia) [µM]	GI50 (HOP-92 NSCLC) [µM]	GI50 (EKVX NSCLC) [µM]	GI50 (NCI-H23 lung) [µM]	GI50 (SK-MEL-28 melanoma) [µM]	GI50 (RPMI-8226 leukemia) [µM]	GI50 (SF-539 CNS) [µM]
COc1ccc(/C=c2\sc3n(c2=O)C(N)=C(C#N)C(c2ccc(OC)cc2)C=3c2nc3ccccc3[nH]2)cc1 (stereo unspecified)	83.6	> 100	61.5	> 100	70	56.2	20.2	56.1	> 100										
CCOC(=O)C(C(=S)Nc1ccccc1)c1nn2c(=O)cc(C)nc2s1 (stereo unspecified)	> 100	60	94.8	80.9	57.4	49.2	89.5	53.4	67.5	86.6									
CN1C(=O)[C@@H]2[C@@H]3c4ccccc4N(S(=O)(=O)C(F)(F)F)[C@@H]3c3[nH]c4ccccc4c3[C@@H]2C1=O	> 100	> 100	> 100	43	35.4	> 100	> 100	> 100	> 100	> 100									
N#C/C(=C\NC(=S)c1ccncc1)c1nc2ccccc2s1	> 100	> 100	> 100	> 100	> 100	> 100	> 100	> 100	> 100	> 100									
COCOc1c(C(O[Si](C)(C)C(C)(C)C)c2cnc(Sc3ccccc3)n2C)ccc(OC)c1OC (stereo unspecified)	3.8	5.77	3.05	7.74	6.36	7.65	> 100	4.18	4.77	3.71									
CCOC(=O)NC(NC1=NCCS1)(C(=O)OCC)C(F)(F)F (stereo unspecified)	> 100	> 100	> 100	> 100	> 100	> 100	> 100	> 100	> 100	> 100									
CC(=C(C(N)=O)C(N)=O)C1C=C(c2cccs2)CC(c2ccc(Cl)cc2)=C1O (stereo unspecified)	> 100	> 100	> 100	81.6	> 100	> 100	> 100	> 100	> 100										
Cc1noc2nnn(-c3ccc(Cl)cc3)c(=O)c12	5.41	7.47	10.5	3.78	17.9	20.4	20.5	25.5	3.11	1.73									
COc1ccc2sc(-n3nc4ccccc4c3Nc3nc4ccc(OC)cc4s3)nc2c1	36.4	9.92	> 52.4	> 100	15.5	19.3	5.25	26.5	7.12	4.5									
CCOC(=O)C1OC(C2(C)OC3(OC4(C=CC3O)OC(C(C)C(=O)C(C)C(O)C(C)CC(C)c3c(Cl)cc(C)c(O)c3C(=O)O)C(C)CC4C)C(C)C2OC)CC1O (stereo unspecified)	10.5	0.919	1.13	4.53	5.77	5.02	5.77	1.02	> 14.7	7.51									
O=C1/C(=C/c2ccccc2O)N=C(c2ccccc2)N1c1nc2ccccc2s1	> 100	98.2	43.4	7.19	> 100	> 100	38.5	> 100	49.3	57									
COc1cc(/C=C/C(=O)c2c(C)nc3ccccc3c2C)ccc1OCCCOc1cc2c(cc1OC)C(=O)N1CCC[C@H]1C=N2		0.114	0.331		0.275	0.453	0.0459	0.044	0.0477	0.0563	0.0226	0.0877	0.0321	0.0367	0.0555	0.0197	0.0214	0.014	0.0239
CC1OC2(CC(OCc3ccccc3)C1OCc1ccccc1)OCCO2 (stereo unspecified)	> 100		> 100	> 100	> 100	> 100	> 100	> 100	> 100	> 100									
c1ccc2c(c1)ncn2C1CCCCO1 (stereo unspecified)	> 100	> 100	> 100	> 100	> 100	> 100	> 100	> 100	> 100	> 100									
N=C(N)SCc1ccc(Cl)cc1Cl (tested in a mixture with another compound)	37.6	30.9	27.5	22.8	34.6	37.2	32.4	45.3	12.7	31.9									
O=C/C=C/c1ccco1	> 100	> 100	> 100	> 100	> 100	> 100	> 100	> 100	> 100	> 100									

Compound	TGI (SW-620 colon) [µM]	TGI (SNB-75 CNS) [µM]	TGI (SK-MEL-2 melanoma) [µM]	TGI (SR leukemia) [µM]	TGI (HOP-92 NSCLC) [µM]	TGI (EKVX NSCLC) [µM]	TGI (NCI-H23 lung) [µM]	TGI (SK-MEL-28 melanoma) [µM]	TGI (RPMI-8226 leukemia) [µM]	TGI (SF-539 CNS) [µM]	GI50 (SNB-75 CNS) [µM]	GI50 (SK-MEL-2 melanoma) [µM]	GI50 (SR leukemia) [µM]	GI50 (HOP-92 NSCLC) [µM]	GI50 (EKVX NSCLC) [µM]	GI50 (NCI-H23 lung) [µM]	GI50 (SK-MEL-28 melanoma) [µM]	GI50 (RPMI-8226 leukemia) [µM]	GI50 (SF-539 CNS) [µM]
Cc1cc(Cc2c(F)c(F)c(C(c3cc(C)no3)c3c(F)c(F)c(F)c(F)c3F)c(F)c2F)on1 (stereo unspecified)	> 100	> 100	> 100	> 100	> 100	> 100	> 100	> 100	> 100	> 100									
O=S(=O)(O)ON=C1c2ccccc2-c2ccccc21	> 100	> 100	> 100	> 100	> 100	> 100	> 100	> 100	> 100	> 100									
O=c1oc2cc(O)ccc2c(O)c1C(c1cccnc1)c1c(O)c2ccc(O)cc2oc1=O	> 100	> 100	> 100	> 100	> 100	> 100	> 100	> 100	> 100	> 100									
CCOC(=O)Cc1nc2sc(S(N)(=O)=O)nn2c1Br	48	> 100	> 100	> 100	41.1	79.4	81.5	96.2	73.5										
CCOC(=O)c1c(N2CCCC2)[nH]c(=O)c(C(c2ccco2)c2c(O)c(C(=O)OCC)c(N3CCCC3)[nH]c2=O)c1O	> 100	60.5	> 100	> 100	> 100	> 100	> 100	> 100	> 100	> 100									
Cn1c2ccccc2c2c(=O)[nH]c(=O)[nH]c21	> 100	> 100	> 100	> 100	> 100	> 100	> 100	> 100	> 100	> 100									
Cc1cc(C)nc(SC(C)C(=O)N/N=C/c2ccc(OCc3ccccc3)cc2)n1 (stereo unspecified)	> 100	> 100	46.1	38.1	> 100	> 100	> 100	> 100	41.9	> 100									
COC(=O)/C=C/c1ccc2c(c1)CC1(C2)Cc2cc3c(cc2C1=O)CCC3 (stereo unspecified)	> 100	71.3	> 100	> 100	> 100	> 100		> 100	> 100	> 100									
CSc1ccc(NC(=S)NN(C)C)cc1	> 10	> 10	> 10	> 10	> 10	> 10	> 10	> 10	> 10	> 10									
N#Cc1c(N)sc2c1-c1ccccc1OC2	> 100		> 100	47.9	> 100	31	> 100	> 100	> 100	> 100									
O=C(/C=C/c1ccc(O)c(O)c1)c1cc(O)cc(O)c1		34.5	28.2	> 100	26.8	57.4	26.4	31.2	> 100	20.7									
O=C1/C(=C/c2cccc(Br)c2)CSC/C1=C\c1cccc(Br)c1	11.2		12	> 100	7.43	19.9	9.03	7.12	6.42	13.6									
CSCCCNC(=O)c1csc(-c2csc(C(CNC(=O)OC(C)(C)C)CNC(=O)OC(C)(C)C)n2)n1	> 100	> 100	73.7	70.1	> 100	> 100	> 100		41.7	> 100									
CN1CCC(CN2c3ccccc3Sc3ccccc32)CC1	28.6		31	33.3	17.6	27.5	30	23.1	30.7	28.5									
CCCCCCOP(=O)(OCCCCCC)C(NC(=O)OCC)(C(F)(F)F)C(F)(F)F	> 100	> 100	72.2	> 100	93.4	> 100		> 100	> 100	> 100									

— PubChem BioAssay (NCI)
